Laboratory results reported in patent publication US20080103205A1, “Pesticidal compositions and methods of use” (priority 2006, published 2008).

Tests used:
[1] = test system: Meloidogyne incognita eggs; test: M. incognita egg hatching; assay type: in vivo
Procedure: Meloidogyne incognita (plant parasitic nematode) eggs were collected from tomato plant roots and were suspended in water. The solution was either diluted or concentrated to adjust the egg load to about 5000/ml. AT stock solutions prepared in DMSO and 300 ul of test solution was placed in a well, along with 20 ul of aqueous solution containing eggs. The number of eggs in 20 ul solution ranged from 115 to 143 (n=10). Each treatment (2, 5, 10, 20, or 40 ppm) was replicated 5 times. Microplates were sealed with Parafilm™ and incubated at room temperature. Similar tests conducted with 0.2% DMSO alone served as controls. Egg hatching was monitored at 24, 72, 120, and 168 hr after incubation. Both moving and non-moving nematodes were counted to arrive at the number of eggs hatched. Proportion of egg hatch was calculated as the number of juveniles divided by total number of eggs.
VSCC blockers effect on M. incognita egg hatching is shown in the following tables where % hatched is rounded to the nearest percentage point and where “% C*” is % hatch, normalized to control.

[2] = test system: European corn borer (Ostrinia nubilalis); test: Diet surface test on European corn borer larvae (2nd instar); assay type: in vivo
Procedure: Concentrations of 6.25, 12.5, 25, or 50 ppm AT blocker were prepared in 95% ethyl alcohol (EtOH). 95% EtOH alone served as control. European corn borer (ECB) diet prepared from the powdered diet supplied by French Agricultural Research, Inc. Diet (1-2 ml) was poured into small cups and allowed to cool to room temperature. Test solution (100 ul) was placed onto the diet surface and allowed to evaporate the solvent. Each concentration of chemical had 2 sets of 10 cups each. One late 2nd instar larva was placed in each cup and covered with lid having perforations for aeration. Cups were placed in an incubator for 7 days at 25±1° C. and 70±5% RH. After seven days, the weight of each larva was taken and any mortality was recorded. Then, the surviving larvae were transferred to fresh diet cups holding sufficient diet (5-6 ml) without chemicals and incubated at 25±1° C. and 70±5% RH until pupation. Weights of larvae were taken 14 days after transferring to fresh diet (21 days after start of treatment). Finally, the number of days until pupation was recorded.
Anion transporters caused larval death and a reduction in weight gain within 7 days exposure. The effect persisted for 2 weeks time on untreated diet, but total time to pupation was relatively unaffected.

[3] = 6.25 ppm, 7 days after feeding, 10 larvae treated
[4] = 6.25 ppm, 21 days after feeding
[5] = 6.25 ppm, 21 days after feeding, 10 larvae treated
[6] = 12.5 ppm, 7 days after feeding, 10 larvae treated
[7] = 12.5 ppm, 21 days after feeding
[8] = 12.5 ppm, 21 days after feeding, 10 larvae treated
[9] = 25 ppm, 7 days after feeding, 10 larvae treated
[10] = 25 ppm, 21 days after feeding, 10 larvae treated
[11] = 50 ppm, 7 days after feeding, 10 larvae treated

For `CC1(C2CCCC2)Cc2cc(OCC(=O)O)c(Cl)c(Cl)c2C1=O` (single isomer, unassigned; (+)) [IAA-94, (+)(2-cyclopentyl-6,7-dichloro-2-methyl-1-oxo-5-indanyloxy) acetic acid], the “Eggs Hatched %” value ([1]; 2 ppm, 24 hr) was 10%, the “Eggs Hatched % C* (% hatch, normalized to control)” value ([1]; 2 ppm, 24 hr) was 100% and the “Eggs Hatched No.” value ([1]; 2 ppm, 24 hr) was 70. For the same molecule, the “Eggs Hatched %” value ([1]; 2 ppm, 72 hr) was 15%, the “Eggs Hatched % C* (% hatch, normalized to control)” value ([1]; 2 ppm, 72 hr) was 94% and the “Eggs Hatched No.” value ([1]; 2 ppm, 72 hr) was 97. For the same molecule, the “Eggs Hatched %” value ([1]; 2 ppm, 120 hr) was 19%, the “Eggs Hatched % C* (% hatch, normalized to control)” value ([1]; 2 ppm, 120 hr) was 86% and the “Eggs Hatched No.” value ([1]; 2 ppm, 120 hr) was 130. The “Eggs Hatched %” value ([1]; 2 ppm, 168 hr) was 24%, the “Eggs Hatched % C* (% hatch, normalized to control)” value ([1]; 2 ppm, 168 hr) was 86% and the “Eggs Hatched No.” value ([1]; 2 ppm, 168 hr) was 161. The “Eggs Hatched %” value ([1]; 5 ppm, 24 hr) was 10%, the “Eggs Hatched % C* (% hatch, normalized to control)” value ([1]; 5 ppm, 24 hr) was 100% and the “Eggs Hatched No.” value ([1]; 5 ppm, 24 hr) was 66. For the same molecule, the “Eggs Hatched %” value ([1]; 5 ppm, 72 hr) was 13%, the “Eggs Hatched % C* (% hatch, normalized to control)” value ([1]; 5 ppm, 72 hr) was 81% and the “Eggs Hatched No.” value ([1]; 5 ppm, 72 hr) was 96. The “Eggs Hatched %” value ([1]; 5 ppm, 120 hr) was 19%, the “Eggs Hatched % C* (% hatch, normalized to control)” value ([1]; 5 ppm, 120 hr) was 86% and the “Eggs Hatched No.” value ([1]; 5 ppm, 120 hr) was 128. The “Eggs Hatched %” value ([1]; 5 ppm, 168 hr) was 22%, the “Eggs Hatched % C* (% hatch, normalized to control)” value ([1]; 5 ppm, 168 hr) was 79% and the “Eggs Hatched No.” value ([1]; 5 ppm, 168 hr) was 161. The “Eggs Hatched %” value ([1]; 10 ppm, 24 hr) was 9%, the “Eggs Hatched % C* (% hatch, normalized to control)” value ([1]; 10 ppm, 24 hr) was 90% and the “Eggs Hatched No.” value ([1]; 10 ppm, 24 hr) was 64. The “Eggs Hatched %” value ([1]; 10 ppm, 72 hr) was 13%, the “Eggs Hatched % C* (% hatch, normalized to control)” value ([1]; 10 ppm, 72 hr) was 81% and the “Eggs Hatched No.” value ([1]; 10 ppm, 72 hr) was 88. The “Eggs Hatched %” value ([1]; 10 ppm, 120 hr) was 18%, the “Eggs Hatched % C* (% hatch, normalized to control)” value ([1]; 10 ppm, 120 hr) was 82% and the “Eggs Hatched No.” value ([1]; 10 ppm, 120 hr) was 112. For the same molecule, the “Eggs Hatched %” value ([1]; 10 ppm, 168 hr) was 20%, the “Eggs Hatched % C* (% hatch, normalized to control)” value ([1]; 10 ppm, 168 hr) was 71% and the “Eggs Hatched No.” value ([1]; 10 ppm, 168 hr) was 134. For the same molecule, the “Eggs Hatched %” value ([1]; 20 ppm, 24 hr) was 8%, the “Eggs Hatched % C* (% hatch, normalized to control)” value ([1]; 20 ppm, 24 hr) was 80% and the “Eggs Hatched No.” value ([1]; 20 ppm, 24 hr) was 60. The “Eggs Hatched %” value ([1]; 20 ppm, 72 hr) was 12%, the “Eggs Hatched % C* (% hatch, normalized to control)” value ([1]; 20 ppm, 72 hr) was 75% and the “Eggs Hatched No.” value ([1]; 20 ppm, 72 hr) was 82. The “Eggs Hatched %” value ([1]; 20 ppm, 120 hr) was 15%, the “Eggs Hatched % C* (% hatch, normalized to control)” value ([1]; 20 ppm, 120 hr) was 68% and the “Eggs Hatched No.” value ([1]; 20 ppm, 120 hr) was 96. The “Eggs Hatched %” value ([1]; 20 ppm, 168 hr) was 17%, the “Eggs Hatched % C* (% hatch, normalized to control)” value ([1]; 20 ppm, 168 hr) was 61% and the “Eggs Hatched No.” value ([1]; 20 ppm, 168 hr) was 112. The “Eggs Hatched %” value ([1]; 40 ppm, 24 hr) was 8%, the “Eggs Hatched % C* (% hatch, normalized to control)” value ([1]; 40 ppm, 24 hr) was 80% and the “Eggs Hatched No.” value ([1]; 40 ppm, 24 hr) was 55. For the same molecule, the “Eggs Hatched %” value ([1]; 40 ppm, 72 hr) was 11%, the “Eggs Hatched % C* (% hatch, normalized to control)” value ([1]; 40 ppm, 72 hr) was 69% and the “Eggs Hatched No.” value ([1]; 40 ppm, 72 hr) was 69. For the same molecule, the “Eggs Hatched %” value ([1]; 40 ppm, 120 hr) was 13%, the “Eggs Hatched % C* (% hatch, normalized to control)” value ([1]; 40 ppm, 120 hr) was 59% and the “Eggs Hatched No.” value ([1]; 40 ppm, 120 hr) was 82. The “Eggs Hatched %” value ([1]; 40 ppm, 168 hr) was 14%, the “Eggs Hatched % C* (% hatch, normalized to control)” value ([1]; 40 ppm, 168 hr) was 50% and the “Eggs Hatched No.” value ([1]; 40 ppm, 168 hr) was 92. The “Mean wt of survived larvae” value ([2]; 6.25 ppm, 7 days after feeding) was 45.52 mg, the “Mean wt of survived larvae, mg” value ([2]; 6.25 ppm, 7 days after feeding) was 44.64 (10) mg and the No. dead ([2]; 6.25 ppm, 7 days after feeding, 10 larvae) was 0. The “# surviving” value [2, 3] was 10, the No. dead [2, 3] was 0 and the “Mean wt of survived larvae” value [2, 4] was 138.56 mg. For the same molecule, the “Mean wt of survived larvae, mg” value [2, 4] was 150.90 (10) mg, the No. dead ([2]; 6.25 ppm, 21 days after feeding, 10 larvae) was 0 and the “# surviving” value [2, 5] was 10. The No. dead [2, 5] was 0, the “Mean wt of survived larvae” value ([2]; 12.5 ppm, 7 days after feeding) was 33.62 mg and the “Mean wt of survived larvae, mg” value ([2]; 12.5 ppm, 7 days after feeding) was 34.40 (10) mg. The No. dead ([2]; 12.5 ppm, 7 days after feeding, 10 larvae) was 0, the “# surviving” value [2, 6] was 10 and the No. dead [2, 6] was 0. The “Mean wt of survived larvae” value [2, 7] was 108.84 mg, the “Mean wt of survived larvae, mg” value [2, 7] was 115.14 (10) mg and the No. dead ([2]; 12.5 ppm, 21 days after feeding, 10 larvae) was 0. For the same molecule, the “# surviving” value [2, 8] was 10, the No. dead [2, 8] was 0 and the “Mean wt of survived larvae” value ([2]; 25 ppm, 7 days after feeding) was 25.97 mg. The “Mean wt of survived larvae, mg” value ([2]; 25 ppm, 7 days after feeding) was 23.96 (10) mg, the No. dead ([2]; 25 ppm, 7 days after feeding, 10 larvae) was 0 and the “# surviving” value [2, 9] was 8. For the same molecule, the No. dead [2, 9] was 2, the “Mean wt of survived larvae” value ([2]; 25 ppm, 21 days after feeding) was 4.85 mg and the “Mean wt of survived larvae, mg” value ([2]; 25 ppm, 21 days after feeding) was 65.60 (8) mg. The No. dead ([2]; 25 ppm, 21 days after feeding, 10 larvae) was 2, the “# surviving” value [2, 10] was 8 and the No. dead [2, 10] was 2. For the same molecule, the “Mean wt of survived larvae” value ([2]; 50 ppm, 7 days after feeding) was 11.90 mg, the “Mean wt of survived larvae, mg” value ([2]; 50 ppm, 7 days after feeding) was 12.93 (6) mg and the No. dead ([2]; 50 ppm, 7 days after feeding, 10 larvae) was 4. The “# surviving” value [2, 11] was 2, the No. dead [2, 11] was 8 and the “Mean wt of survived larvae” value ([2]; 50 ppm, 21 days after feeding) was 0 mg. For the same molecule, the “Mean wt of survived larvae, mg” value ([2]; 50 ppm, 21 days after feeding) was 24.0 (2) mg, the No. dead ([2]; 50 ppm, 21 days after feeding, 10 larvae) was 8 and the No. dead ([2]; 50 ppm, 21 days after feeding, 10 larvae treated) was 10. It also gave a mortality at 6.25 ppm ([2]; Ostrinia nubilalis, 168 h, 6.25 ppm, 7 days after feeding) of 0%, a mortality at 12.5 ppm ([2]; Ostrinia nubilalis, 168 h, 12.5 ppm, 7 days after feeding) of 0% and a mortality at 6.25 ppm ([2]; Ostrinia nubilalis, 504 h, 6.25 ppm, 21 days after feeding) of 0%. For the same molecule, the mortality at 12.5 ppm ([2]; Ostrinia nubilalis, 504 h, 12.5 ppm, 21 days after feeding) was 0%, the mortality at 25 ppm ([2]; Ostrinia nubilalis, 504 h, 25 ppm, 21 days after feeding) was 20% and the mortality at 50 ppm ([2]; Ostrinia nubilalis, 504 h, 50 ppm, 21 days after feeding) was 80%.
